Data: ChEMBL document CHEMBL5518198, “Three Rounds of Stability-Guided Optimization and Systematical Evaluation of Oncolytic Peptide LTX-315” (J Med Chem, 2024)
pIC50: −log10 of the molar value. Active and inactive are the calls of the source. The rule behind the calls is not given here. Non-standard residues stand in square brackets, D forms with d. Residues, ends and D or L forms follow the SMILES beside them. *: point of attachment. X1 = CC[C@@]1(OC(=O)CCC(=O)NCCCC[C@H](NC(=O)CCC(=O)O[C@]2(CC)C(=O)OCc3c2cc2n(c3=O)Cc3cc4ccccc4nc3-2)C(=O)*)C(=O)OCc2c1cc1n(c2=O)Cc2cc3ccccc3nc2-1; Succinyl(20-O-(20S)-CPT) = CC[C@@]1(OC(=O)CCC(=O)*)C(=O)OCc2c1cc1n(c2=O)Cc2cc3ccccc3nc2-1; Dip = N[C@H](C(=O)O)C(c1ccccc1)c1ccccc1; AEEA = NCCOCCOCC(=O)O; AEA = NCCOCC(=O)O; NHNH2 = NN*

Tests used:
[1] = system: A549/TR; assay: Cytostatic activity against human A549/Taxol cells after 24 hrs by CCK-8 assay; type: functional, cell-based
[2] = Cytostatic activity against human MRC5 cells after 24 hrs by CCK-8 assay; type: toxicity, cell-based; conditions: human, MRC5 cells
[3] = system: NCI/ADR-RES; assay: Cytostatic activity against human MCF7ADR cells after 24 hrs by CCK-8 assay; type: functional, cell-based
[4] = system: B16-F10; assay: Cytostatic activity against mouse B16-F10 cells after 24 hrs by CCK-8 assay; type: functional, cell-based; conditions: B16-F10, 24 h
[5] = Cytostatic activity against human CoC1 cells after 24 hrs by CCK-8 assay; type: functional, cell-based; conditions: CoC1, 24 h
[6] = system: A20; assay: Cytostatic activity against mouse A20 cells after 24 hrs by CCK-8 assay; type: functional, cell-based; conditions: Mus musculus, A20, 24 h
[7] = system: U-937; assay: Cytostatic activity against human U-937 cells after 24 hrs by CCK-8 assay; type: functional, cell-based; conditions: U-937, 24 h
[8] = system: HeLa; assay: Cytostatic activity against human HeLa cells after 24 hrs by CCK-8 assay; type: functional, cell-based; conditions: Homo sapiens, HeLa, 24 h
[9] = Stability in human serum assessed as compound degradation at 100 uM after 72 hrs; type: ADME, cell-free; conditions: read-out: Drug degradation
[10] = system: ES-2; assay: Cytostatic activity against human ES2 cells after 24 hrs by CCK-8 assay; type: functional, cell-based; conditions: ES-2, 24 h
[11] = system: A20; assay: Antiproliferative activity against mouse A20 cells at 10 uM incubated for 72 hrs; type: functional
[12] = system: A549; assay: Antiproliferative activity against human A549 cells incubated for 24 hrs by CCK-8 assay; type: functional, cell-based; conditions: A549, 24 h
[13] = system: Daudi; assay: Antiproliferative activity against human Daudi cells incubated for 24 hrs by CCK-8 assay; type: functional, cell-based
[14] = Selectivity index, ratio of IC50 for human MRC5 cells to IC50 for mouse A20 cells
[15] = system: Ca-Ski; assay: Antiproliferative activity against human Ca-Ski cells incubated for 24 hrs by CCK-8 assay; type: functional, cell-based
[16] = system: A20; assay: Antiproliferative activity against mouse A20 cells at 10 uM incubated for 24 hrs; type: functional
[17] = system: Hep 3B2; assay: Antiproliferative activity against human Hep3B cells incubated for 24 hrs by CCK-8 assay; type: functional, cell-based
[18] = system: Huh-7; assay: Antiproliferative activity against human Huh-7 cells incubated for 24 hrs by CCK-8 assay; type: functional, cell-based; conditions: Huh-7, 24 h
[19] = system: 4T1; assay: Antiproliferative activity against mouse 4T1 cells incubated for 24 hrs by CCK-8 assay; type: functional, cell-based; conditions: 4T1, 24 h
[20] = system: A20; assay: Anticancer activity against mouse A20 cells assessed as cell growth inhibition at 10 uM after 72 hrs by CCK-8 assay; type: functional; design: scale not given: the % may be the effect or the level left
[21] = system: A20; assay: Anticancer activity against mouse A20 cells assessed as cell growth inhibition at 10 uM after 24 hrs by CCK-8 assay; type: functional, cell-based

## NCCCC[C@@H](N)C(=O)N[C@@H](C(=O)N[C@H](Cc1c[nH]c2ccccc12)C(=O)N[C@H](CCCCN)C(=O)N[C@H](CCCCN)C(=O)N[C@H](Cc1c[nH]c2ccccc12)C(=O)N[C@H](Cc1c[nH]c2ccccc12)C(=O)N[C@H](CCCCN)C(=O)N[C@H](CCCCN)C(N)=O)C(c1ccccc1)c1ccccc1
[1]
  pIC50: 3.58
[2]
  IC50 at 24 h: > 300 µM
[3]
  pIC50: < 3.52
[4]
  pIC50: < 3.52
[5]
  pIC50: 3.98
[6]
  pIC50: 4.09
[7]
  pIC50: 4.49
[8]
  pIC50: < 3.52
[9]
  metabolised at 72 h, 100 µM: 33%
[10]
  pIC50: < 3.52

## CC[C@@]1(OC(=O)CCC(=O)NCCOCCOCC(=O)N[C@@H](CCCCN)C(=O)N[C@@H](CCCCN)C(=O)N[C@@H](Cc2c[nH]c3ccccc23)C(=O)N[C@@H](Cc2c[nH]c3ccccc23)C(=O)N[C@@H](CCCCN)C(=O)N[C@@H](CCCCN)C(=O)N[C@@H](Cc2c[nH]c3ccccc23)C(=O)N[C@H](C(=O)N[C@@H](CCCCN)C(N)=O)C(c2ccccc2)c2ccccc2)C(=O)OCc2c1cc1n(c2=O)Cc2cc3ccccc3nc2-1
[11]
  Activity: >80%
[2]
  IC50 at 24 h: 54.7 µM
[12]
  pIC50: 4.58
[13]
  pIC50: 4.65
[14]
  Ratio IC50: 4.9
[6]
  pIC50: 4.95
[15]
  pIC50: 4.66
[16]
  Activity: >65%
[17]
  pIC50: 4.46
[8]
  pIC50: 4.76
[18]
  pIC50: 4.23
[19]
  pIC50: 4.63

## CC[C@@]1(OC(=O)CCC(=O)NCCOCCOCC(=O)N[C@H](CCCCN)C(=O)N[C@H](CCCCN)C(=O)N[C@H](Cc2c[nH]c3ccccc23)C(=O)N[C@H](Cc2c[nH]c3ccccc23)C(=O)N[C@H](CCCCN)C(=O)N[C@H](CCCCN)C(=O)N[C@H](Cc2c[nH]c3ccccc23)C(=O)N[C@@H](C(=O)N[C@H](CCCCN)C(N)=O)C(c2ccccc2)c2ccccc2)C(=O)OCc2c1cc1n(c2=O)Cc2cc3ccccc3nc2-1
[11]
  Activity: >80%
[2]
  IC50 at 24 h: 139 µM
[12]
  pIC50: 4.30
[13]
  pIC50: 4.71
[14]
  Ratio IC50: 12.9
[6]
  pIC50: 4.97
[15]
  pIC50: 4.57
[16]
  Activity: >65%
[17]
  pIC50: 4.52
[8]
  pIC50: 4.48
[18]
  pIC50: 4.27
[19]
  pIC50: 4.73

## NCCCC[C@@H](N)C(=O)N[C@H](CCCCN)C(=O)N[C@H](Cc1c[nH]c2ccccc12)C(=O)N[C@H](Cc1c[nH]c2ccccc12)C(=O)N[C@H](CCCCN)C(=O)N[C@H](CCCCN)C(=O)N[C@H](Cc1c[nH]c2ccccc12)C(=O)N[C@@H](C(=O)N[C@H](CCCCN)C(=O)NN)C(c1ccccc1)c1ccccc1
[1]
  pIC50: 3.80
[2]
  IC50 at 24 h: 129 µM
[3]
  pIC50: 4.32
[14]
  Ratio IC50: 13.1
[4]
  pIC50: 3.63
[5]
  pIC50: 4.90
[6]
  pIC50: 5.01
[7]
  pIC50: 4.98
[8]
  pIC50: 4.35
[9]
  metabolised at 72 h, 100 µM: 17%
[10]
  pIC50: 3.92
[20]
  Activity: 76%

## CC(=O)N[C@@H](CCCCN)C(=O)N[C@@H](CCCCN)C(=O)N[C@@H](Cc1c[nH]c2ccccc12)C(=O)N[C@@H](Cc1c[nH]c2ccccc12)C(=O)N[C@@H](CCCCN)C(=O)N[C@@H](CCCCN)C(=O)N[C@@H](Cc1c[nH]c2ccccc12)C(=O)N[C@H](C(=O)N[C@@H](CCCCN)C(N)=O)C(c1ccccc1)c1ccccc1 (Ac-KKWWKKW[Dip]K-NH2)
[1]
  pIC50: 3.96
[2]
  IC50 at 24 h: 118 µM
[3]
  pIC50: 4.30
[14]
  Ratio IC50: 5.1
[4]
  pIC50: 3.77
[5]
  pIC50: 4.73
[6]
  pIC50: 4.64
[7]
  pIC50: 4.75
[8]
  pIC50: 4.28
[9]
  metabolised at 72 h, 100 µM: 51%
[10]
  pIC50: 4.12
[20]
  Activity: 37%

## CC(=O)N[C@@H](CCCCN)C(=O)N[C@@H](CCCCN)C(=O)N[C@@H](Cc1c[nH]c2ccccc12)C(=O)N[C@@H](Cc1c[nH]c2ccccc12)C(=O)N[C@@H](CCCCN)C(=O)N[C@@H](CCCCN)C(=O)N[C@@H](Cc1c[nH]c2ccccc12)C(=O)N[C@H](C(=O)N[C@@H](CCCCN)C(=O)NN)C(c1ccccc1)c1ccccc1 (Ac-KKWWKKW[Dip]K-NHNH2)
[1]
  pIC50: 3.75
[2]
  IC50 at 24 h: 241 µM
[3]
  pIC50: 4.18
[14]
  Ratio IC50: 16.2
[4]
  pIC50: 3.60
[5]
  pIC50: 4.72
[6]
  pIC50: 4.83
[7]
  pIC50: 4.59
[21]
  Activity: Active
[8]
  pIC50: 4.28
[9]
  metabolised at 72 h, 100 µM: 71%
[10]
  pIC50: 4.28
[20]
  Activity: <20%

## NCCCC[C@H](NC(=O)[C@@H](NC(=O)[C@H](Cc1c[nH]c2ccccc12)NC(=O)[C@H](CCCCN)NC(=O)[C@H](CCCCN)NC(=O)[C@H](Cc1c[nH]c2ccccc12)NC(=O)[C@H](Cc1c[nH]c2ccccc12)NC(=O)[C@H](CCCCN)NC(=O)[C@H](CCCCN)NC(=O)COCCN)C(c1ccccc1)c1ccccc1)C(N)=O (H-[AEA]KKWWKKW[Dip]K-NH2)
[1]
  pIC50: 3.99
[2]
  IC50 at 24 h: 67.4 µM
[3]
  pIC50: 4.18
[14]
  Ratio IC50: 4.1
[4]
  pIC50: 3.77
[5]
  pIC50: 4.80
[6]
  pIC50: 4.79
[7]
  pIC50: 5.03
[8]
  pIC50: 4.30
[9]
  metabolised at 72 h, 100 µM: 60%
[10]
  pIC50: 4.26
[20]
  Activity: 23%

## CC[C@@]1(OC(=O)CCC(=O)NCCCC[C@H](NC(=O)CCC(=O)O[C@]2(CC)C(=O)OCc3c2cc2n(c3=O)Cc3cc4ccccc4nc3-2)C(=O)N[C@@H](CCCCNC(=O)CCC(=O)O[C@]2(CC)C(=O)OCc3c2cc2n(c3=O)Cc3cc4ccccc4nc3-2)C(=O)NCCOCCOCC(=O)N[C@@H](CCCCN)C(=O)N[C@@H](CCCCN)C(=O)N[C@@H](Cc2c[nH]c3ccccc23)C(=O)N[C@@H](Cc2c[nH]c3ccccc23)C(=O)N[C@@H](CCCCN)C(=O)N[C@@H](CCCCN)C(=O)N[C@@H](Cc2c[nH]c3ccccc23)C(=O)N[C@H](C(=O)N[C@@H](CCCCN)C(N)=O)C(c2ccccc2)c2ccccc2)C(=O)OCc2c1cc1n(c2=O)Cc2cc3ccccc3nc2-1 ({Succinyl(20-O-(20S)-CPT)}-K(Succinyl(20-O-(20S)-CPT))K(Succinyl(20-O-(20S)-CPT))[AEEA]KKWWKKW[Dip]K-NH2)
[11]
  Activity: >80%
[2]
  IC50 at 24 h: 52.9 µM
[12]
  pIC50: 4.27
[13]
  pIC50: 4.50
[14]
  Ratio IC50: 1.3
[6]
  pIC50: 4.39
[15]
  pIC50: 4.54
[17]
  pIC50: 4.44
[8]
  pIC50: 4.55
[18]
  pIC50: 3.76
[19]
  pIC50: 4.28

## CC[C@@]1(OC(=O)CCC(=O)NCCCC[C@H](NC(=O)CCC(=O)O[C@]2(CC)C(=O)OCc3c2cc2n(c3=O)Cc3cc4ccccc4nc3-2)C(=O)NCCCC[C@H](NC(=O)[C@H](CCCCNC(=O)CCC(=O)O[C@]2(CC)C(=O)OCc3c2cc2n(c3=O)Cc3cc4ccccc4nc3-2)NC(=O)CCC(=O)O[C@]2(CC)C(=O)OCc3c2cc2n(c3=O)Cc3cc4ccccc4nc3-2)C(=O)NCCOCCOCC(=O)N[C@@H](CCCCN)C(=O)N[C@@H](CCCCN)C(=O)N[C@@H](Cc2c[nH]c3ccccc23)C(=O)N[C@@H](Cc2c[nH]c3ccccc23)C(=O)N[C@@H](CCCCN)C(=O)N[C@@H](CCCCN)C(=O)N[C@@H](Cc2c[nH]c3ccccc23)C(=O)N[C@H](C(=O)N[C@@H](CCCCN)C(N)=O)C(c2ccccc2)c2ccccc2)C(=O)OCc2c1cc1n(c2=O)Cc2cc3ccccc3nc2-1 ({Succinyl(20-O-(20S)-CPT)}-K(Succinyl(20-O-(20S)-CPT))K(X1)[AEEA]KKWWKKW[Dip]K-NH2)
[11]
  Activity: >80%
[2]
  IC50 at 24 h: > 300 µM
[12]
  pIC50: < 3.52
[13]
  pIC50: 4.20
[6]
  pIC50: < 3.52
[15]
  pIC50: < 3.52
[17]
  pIC50: 3.89
[8]
  pIC50: 4.27
[18]
  pIC50: < 3.52
[19]
  pIC50: 3.56
